# Measurements published in US8460932B2, “Method of treating a disorder by suicide gene therapy” (priority 1999, dated 2013).
# Tested on: brains of rodents
# Experiment: Expression, distribution and longevity of transgene in brain after intrastriatal vector injection (immunohistochemistry)
# Assay type: in vivo, Lewis rat
# Settings: GCV 25 mg/kg i.p. twice daily for 7 days vs saline after RAd 128; 1 month to 1 year
# Description: UK. […] Antibodies were diluted in 1% NHS in TBS.
# Groups of animals were then perfused 1 month, 3 months, 5 months, or 12 months later. Animals were perfusion-fixed and brains were cut in serial sections.
# To assess the effects of HSV-1 TK on the expression another transgene, lacZ, a combination of either RAd TK+RAd HPRT or RAd 35+RAd HPRT or RAd 35+RAd TK was injected into the mid striatum of 9 rats (3 rats per group). The total vector dose was 8×10^7 iu (i.e. 4×10^7 iu per vector).
structure (smiles),measurement,value
"Nc1nc(O)c2ncn(COC(CO)CO)c2n1 [GCV, ganciclovir]",Effect on the maintenance of HSV1-TK immunoreactivity in the rodent brain,no effect
